Experimental data: US11384079B2, “6-5 fused rings as C5a inhibitors” (CHEMOCENTRYX, INC., priority 2017, dated 2022)

target: T1, C5aR (Homo sapiens, UniProt P21730); assay: chemotaxis assay (C5aR mediated migration); assay type: cell-based; details: migration of U937 or neutrophil cells toward C5a (0.03 nM), 1.5 hours at 37° C., read-out: Mig IC50
T1 construct: U937 cells are a monocytic cell line which express C5aR; host or cells: U937 cells (cAMP treated) or isolated neutrophils
T1 sequence (P21730 1-350): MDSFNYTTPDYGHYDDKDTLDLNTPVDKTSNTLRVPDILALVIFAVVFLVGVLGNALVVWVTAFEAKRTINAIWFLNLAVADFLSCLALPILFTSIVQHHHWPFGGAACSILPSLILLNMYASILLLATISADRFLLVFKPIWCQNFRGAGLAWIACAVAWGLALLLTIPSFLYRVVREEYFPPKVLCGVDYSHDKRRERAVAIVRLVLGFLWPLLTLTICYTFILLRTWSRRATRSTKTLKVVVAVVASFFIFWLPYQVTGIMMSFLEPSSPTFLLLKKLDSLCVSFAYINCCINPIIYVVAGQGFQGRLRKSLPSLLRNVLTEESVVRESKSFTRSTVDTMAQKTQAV
Method: U937 cells are a monocytic cell line which express C5aR, and are available from ATCC (VA). […] Cells were grown under 5% CO2/95% air, 100% humidity at 37° C. and subcultured twice weekly at 1:6 (cells were cultured at a density range of 1×10^5 to 2×10^6 cells/mL) and harvested at 1×10^6 cells/mL. Prior to assay, cells are treated overnight with 0.5 mM of cyclic AMP (Sigma, Ohio) and washed once prior to use. cAMP treated U937 cells can be used in C5aR ligand binding and functional assays.
Optionally, human or murine neutrophils can be used to assay for compound activity. Neutrophils may be isolated from fresh human blood using density separation and centrifugation. Briefly, whole blood is incubated with equal parts 3% dextran and allowed to separate for 45 minutes. After separation, the top layer is layered on top of 15 mls of Ficoll (15 mls of Ficoll for every 30 mls of blood suspension) and centrifuged for 30 minutes at 400×g with no brake. The pellet at the bottom of the tube is then isolated and resuspended into PharmLyse RBC Lysis Buffer (BD Biosciences, San Jose, Calif.) after which the sample is again centrifuged for 10 minutes at 400×g with brake. The remaining cell pellet is resuspended as appropriate and consists of isolated neutrophils.
Optionally, compounds may be further assayed for their ability to inhibit chemotaxis in cells. Chemotaxis assays are performed using 5 μm pore polycarbonate, polyvinylpyrrolidone-coated filters in 96-well chemotaxis chambers (Neuroprobe; Gaithersburg, Md.) using chemotaxis buffer (Hank's balanced salt solution (HBSS) and 1% FBS). C5aR ligands (i.e., C5a, R&D Systems; Minneapolis, Minn.) are use to evaluate compound mediated inhibition of C5aR mediated migration. Other chemokines (i.e., SDF-1α; R&D Systems; Minneapolis, Minn.) are used as specificity controls. […] The chambers are incubated 1.5 hours at 37° C., and the number of cells in the lower chamber quantified either by direct cell counts in five high powered fields per well or by the CyQuant assay (Molecular Probes), a fluorescent dye method that measures nucleic acid content and microscopic observation.

Question: `CCc1cccc(CC)c1-n1nc2c(c1-c1ccc(Cl)c3[nH]ccc13)CN(c1ncc(Cl)cc1F)CC2` [Example 1.099] was tested. Which IC50 did it give?
Answer: < 5 nM

Question: `Cc1cccc(C)c1-n1nc2c(c1-c1ccc3[nH]ccc3c1)CN(CC(C)(C)C)CC2` [Example 1.239] was tested. Which IC50 did it give?
Answer: 5 to 50 nM

Question: Which IC50 does the source give for `CCc1cccc(CC)c1-n1nc2c(c1-c1cc(F)c(OC)c3[nH]c(Cl)nc13)CN(c1ncc(C(F)(F)F)cn1)CC2` [Example 1.021] here?
Answer: 50 to 500 nM

Question: For `CCc1cccc(CC)c1-n1nc2c(c1-c1c(F)cc(OC)c3[nH]ccc13)CN(c1ncc(C(F)(F)F)cn1)CC2` [Example 1.046], which IC50 is on record?
Answer: < 5 nM

Question: Which IC50 does the source give for `CCc1cccc(CC)c1-n1nc2c(c1-c1cc(F)c(OC)c3[nH]ncc13)CN(c1ncc(C(F)(F)F)cn1)CC2` [Example 1.056] here?
Answer: < 5 nM

Question: How did the IC50 turn out when `Cc1cccc(OCC(C)C)c1-n1nc2c(c1-c1cc(F)c3[nH]ccc3c1)CN(c1ncc(C(F)(F)F)cc1F)CC2` [Example 1.218] was run?
Answer: < 5 nM

Question: How did the IC50 turn out when `CCc1cccc(CC)c1-n1nc2c(c1-c1ccc(Cl)c3[nH]ccc13)CN(c1nccc(C(F)(F)F)n1)CC2` [Example 1.138] was run?
Answer: < 5 nM

Question: Which IC50 does the source give for `CCc1cccc(CC)c1-n1nc2c(c1-c1ccc(F)c3[nH]ncc13)CN(c1ncc(C(F)(F)F)cc1F)CC2` [Example 1.079] here?
Answer: 50 to 500 nM

Question: `COc1c(F)cc(-c2c3c(nn2-c2c(C)cccc2F)CCN(c2ncc(C(F)(F)F)cn2)C3)c2cc[nH]c12` [Example 1.002] was tested. Which IC50 did it give?
Answer: 5 to 50 nM

Question: For `CCc1cccc(CC)c1-n1nc2c(c1-c1ccnc3[nH]ccc13)CN(c1ncc(C(F)(F)F)cn1)CC2` [Example 1.029], which IC50 is on record?
Answer: 5 to 50 nM

Question: `CCc1cccc(CC)c1-n1nc2c(c1-c1ccc3[nH]ccc3c1)CN(Cc1c(Cl)cccc1C(F)(F)F)CC2` [Example 1.223] was tested. Which IC50 did it give?
Answer: < 5 nM

Question: Which IC50 does the source give for `CCc1cccc(CC)c1-n1nc2c(c1-c1ccc(OC)c3[nH]ncc13)CN(c1ncc(C(F)(F)F)cn1)CC2` [Example 1.053] here?
Answer: < 5 nM

Question: With `Cc1cccc(OCC(C)C)c1-n1nc2c(c1-c1ccc3[nH]nc(N)c3c1)CN(c1ncc(C(F)(F)F)cc1F)CC2` [Example 1.225] as the molecule, how does the IC50 read?
Answer: > 500 nM

Question: How did the IC50 turn out when `CCc1cccc(CC)c1-n1nc2c(c1-c1c(F)cc(CO)c3[nH]ccc13)CN(c1ccc(C(F)(F)F)cn1)CC2` [Example 1.100] was run?
Answer: < 5 nM

Question: With `CCc1cccc(CC)c1-n1nc2c(c1-c1ccc(C)c3[nH]ccc13)CN(c1ncc(C(C)C)cn1)CC2` [Example 1.147] as the molecule, how does the IC50 read?
Answer: < 5 nM

Question: `CCc1cccc(CC)c1-n1nc2c(c1-c1ccc(Cl)c3[nH]ccc13)CN(c1nc(C)cc(C)n1)CC2` [Example 1.148] was tested. Which IC50 did it give?
Answer: < 5 nM

Question: How did the IC50 turn out when `CCc1cccc(CC)c1-n1nc2c(c1-c1c(F)cc(CO)c3[nH]ccc13)CN(c1ncc(C3CC3)cn1)CC2` [Example 1.066] was run?
Answer: < 5 nM

Question: `Cc1cccc(C)c1-n1nc2c(c1-c1ccc(Cl)c3[nH]ccc13)CN(c1ncc(C(F)(F)F)cc1F)CC2` [Example 1.169] was tested. Which IC50 did it give?
Answer: 5 to 50 nM

Question: With `CCc1cccc(CC)c1-n1nc2c(c1-c1ccc(Cl)c3[nH]ccc13)CN(c1cnc(C(F)(F)F)cn1)CC2` [Example 1.058] as the molecule, how does the IC50 read?
Answer: < 5 nM

Question: How did the IC50 turn out when `CCc1cccc(CC)c1-n1nc2c(c1-c1ccc(C)c3[nH]ccc13)CN(c1ncc(C(F)(F)F)cn1)CC2` [Example 1.140] was run?
Answer: < 5 nM

Question: `CCc1cccc(CC)c1-n1nc2c(c1-c1ncnc3[nH]ccc13)CN(c1ncc(C(F)(F)F)cn1)CC2` [Example 1.026] was tested. Which IC50 did it give?
Answer: 5 to 50 nM

Question: How did the IC50 turn out when `CCc1cccc(CC)c1-n1nc2c(c1-c1c(F)cc(C)c3[nH]ccc13)CN(c1ncc(C(F)(F)F)cn1)CC2` [Example 1.141] was run?
Answer: < 5 nM

Question: Which IC50 does the source give for `CCc1cccc(CC)c1-n1nc2c(c1-c1cc3cc[nH]c3cn1)CN(c1ncc(C(F)(F)F)cn1)CC2` [Example 1.012] here?
Answer: 50 to 500 nM

Question: With `Cc1cccc(OCC(C)C)c1-n1nc2c(c1-c1ccc3[nH]ccc3c1)CN(C(=O)OCc1ccccc1)CC2` [Example 1.238] as the molecule, how does the IC50 read?
Answer: 5 to 50 nM

Question: With `COc1c(F)cc(-c2c3c(nn2-c2c(C)cccc2C)CCN(c2ncc(C4CC4)cn2)C3)c2cc[nH]c12` [Example 1.003] as the molecule, how does the IC50 read?
Answer: < 5 nM

Question: `CCc1cccc(CC)c1-n1nc2c(c1-c1cc(F)c(C)c3[nH]ccc13)CN(c1ncc(C(C)C)cn1)CC2` [Example 1.115] was tested. Which IC50 did it give?
Answer: < 5 nM

Question: With `CCc1cccc(CC)c1-n1nc2c(c1-c1ccc(C(C)(C)O)c3[nH]ccc13)CN(c1ncc(C(F)(F)F)cc1F)CC2` [Example 1.165] as the molecule, how does the IC50 read?
Answer: 50 to 500 nM

Question: Which IC50 does the source give for `CCc1cccc(CC)c1-n1nc2c(c1-c1ccc3[nH]ccc3c1)CN(Cc1cc(Cl)ccc1C(F)(F)F)CC2` [Example 1.226] here?
Answer: < 5 nM

Question: How did the IC50 turn out when `Cc1cccc(C)c1-n1nc2c(c1-c1ccc(C)c3[nH]ccc13)CN(c1ncc(C(C)C)cn1)CC2` [Example 1.131] was run?
Answer: 5 to 50 nM

Question: `CCc1cccc(CC)c1-n1nc2c(c1-c1cc(F)c(C)c3[nH]ccc13)CN(c1ncc(C(F)(F)F)cn1)CC2` [Example 1.093] was tested. Which IC50 did it give?
Answer: < 5 nM

Question: For `Cc1cccc(C)c1-n1nc2c(c1-c1cc(C)c3[nH]ccc3c1)CN(c1ncc(Cl)cc1Cl)CC2` [Example 1.189], which IC50 is on record?
Answer: 50 to 500 nM

Question: How did the IC50 turn out when `CCc1cccc(CC)c1-n1nc2c(c1-c1ccc(F)c3[nH]ccc13)CN(c1ncc(Cl)cc1Cl)CC2` [Example 1.187] was run?
Answer: < 5 nM

Question: With `CCc1cccc(CC)c1-n1nc2c(c1-c1c(F)cc(OC)c3[nH]ccc13)CN(c1ncc(C(F)(F)F)cc1F)CC2` [Example 1.045] as the molecule, how does the IC50 read?
Answer: < 5 nM

Question: How did the IC50 turn out when `CCc1cccc(CC)c1-n1nc2c(c1-c1cc(F)c(OC)c3[nH]c(CO)nc13)CN(c1ncc(C(F)(F)F)cn1)CC2` [Example 1.028] was run?
Answer: > 500 nM

Question: `CCc1cccc(CC)c1-n1nc2c(c1-c1ccc(Cl)c3[nH]ccc13)CN(c1ncc(OC)cn1)CC2` [Example 1.126] was tested. Which IC50 did it give?
Answer: < 5 nM

Question: How did the IC50 turn out when `CCc1cccc(CC)c1-n1nc2c(c1-c1cnc3[nH]ccc3c1)CN(c1ncc(C(F)(F)F)cn1)CC2` [Example 1.011] was run?
Answer: > 500 nM

Question: How did the IC50 turn out when `CCc1cccc(CC)c1-n1nc2c(c1-c1c(F)cc(Cl)c3[nH]ccc13)CN(c1ncc(C(C)C)cc1F)CC2` [Example 1.125] was run?
Answer: < 5 nM

Question: For `CCc1cccc(CC)c1-n1nc2c(c1-c1cc(F)c(F)c3[nH]ccc13)CN(c1ncc(C(C)C)cn1)CC2` [Example 1.117], which IC50 is on record?
Answer: 5 to 50 nM

Question: `COc1cnc(N2CCc3nn(-c4c(C)cccc4C)c(-c4ccc(Cl)c5[nH]ccc45)c3C2)nc1` [Example 1.112] was tested. Which IC50 did it give?
Answer: 5 to 50 nM

Question: How did the IC50 turn out when `CCc1cccc(CC)c1-n1nc2c(c1-c1ccc3[nH]ccc3c1)CN(c1ncc(C(F)(F)F)cc1F)CC2` [Example 1.082] was run?
Answer: 5 to 50 nM

Question: Which IC50 does the source give for `Cc1cccc(OCC(C)C)c1-n1nc2c(c1-c1ccc3[nH]ccc3c1)CN(C(=O)NC(C)(C)C)CC2` [Example 1.186] here?
Answer: 50 to 500 nM

Question: Which IC50 does the source give for `CCc1cccc(CC)c1-n1nc2c(c1-c1cc(F)c(OC)c3[nH]ccc13)CN(c1ncc(C(F)(F)F)cc1F)CC2` [Example 1.061] here?
Answer: < 5 nM

Question: How did the IC50 turn out when `Cc1cccc(OCC(C)C)c1-n1nc2c(c1-c1ccc3[nH]ccc3c1)CN(Cc1ccccc1C(F)(F)F)CC2` [Example 1.235] was run?
Answer: < 5 nM

Question: How did the IC50 turn out when `CCc1cccc(CC)c1-n1nc2c(c1-c1ccc3[nH]cc(Cl)c3c1)CN(Cc1cc(F)ccc1Cl)CC2` [Example 1.220] was run?
Answer: 5 to 50 nM

Question: Which IC50 does the source give for `CCc1cccc(CC)c1-n1nc2c(c1-c1ccc(OC)c3[nH]ncc13)CN(c1ncc(C(F)(F)F)cc1F)CC2` [Example 1.052] here?
Answer: 5 to 50 nM

Question: With `CCc1cccc(CC)c1-n1nc2c(c1-c1cccc3[nH]cnc13)CN(c1ncc(C(F)(F)F)cn1)CC2` [Example 1.043] as the molecule, how does the IC50 read?
Answer: 5 to 50 nM

Question: Which IC50 does the source give for `Cc1cccc(C)c1-n1nc2c(c1-c1ccc(F)c3[nH]ccc13)CN(c1ncc(C(F)(F)F)cc1F)CC2` [Example 1.178] here?
Answer: 50 to 500 nM

Question: For `CCc1cccc(CC)c1-n1nc2c(c1-c1ccc(Cl)c3[nH]ccc13)CN(c1ccc(C(C)C)cn1)CC2` [Example 1.135], which IC50 is on record?
Answer: < 5 nM

Question: `CCc1cccc(CC)c1-n1nc2c(c1-c1ccc(Cl)c3[nH]ccc13)CN(c1ncc(C(F)(F)F)cc1C)CC2` [Example 1.088] was tested. Which IC50 did it give?
Answer: < 5 nM

Question: How did the IC50 turn out when `CCc1cccc(CC)c1-n1nc2c(c1-c1cnc(C)c3[nH]ccc13)CN(c1ncc(C(F)(F)F)cn1)CC2` [Example 1.027] was run?
Answer: 5 to 50 nM

Question: With `CCc1cccc(CC)c1-n1nc2c(c1-c1cc(F)c(F)c3[nH]ccc13)CN(c1ccc(C(F)(F)F)cn1)CC2` [Example 1.116] as the molecule, how does the IC50 read?
Answer: 5 to 50 nM

Question: For `CCc1cccc(CC)c1-n1nc2c(c1-c1ccc(Cl)c3[nH]ccc13)CN(c1ncc(Cl)cn1)CC2` [Example 1.160], which IC50 is on record?
Answer: < 5 nM

Question: With `CCc1cccc(CC)c1-n1nc2c(c1-c1ccc(Cl)c3[nH]ccc13)CN(c1ncc(C(C)C)cn1)CC2` [Example 1.164] as the molecule, how does the IC50 read?
Answer: < 5 nM
